This note sets out measurements from patent US6420387B1, “Farnesyl protein transferase inhibiting (imidazol-5-yl) methyl-2-quinolinone derivatives” (Janssen Pharmaceutica N.V., priority 1995, dated 2002).

Assay [1] deals with T1, Human farnesyl protein transferase (Homo sapiens, UniProt P49354+P49356).
T1 construct: grown as monolayer cell cultures were used as a source of human enzyme; endogenous in cells; host or cells: KHOS (Kirsten virus transformed human osteosarcoma) cells, grown as solid tumors in nude mice or as monolayer cultures; 30-50% ammonium sulfate fraction, then Q Fast Flow Sepharose
Description: In vitro assay for inhibition of farnesyl protein transferase (scintillation proximity assay). In kind it is biochemical. To be noted: concentration producing 50% inhibition of enzyme activity; [3H]-farnesylpyrophosphate and biotinylated lamin B peptide substrates, 60 min at 37° C. As for the experimental part: Human farnesyl protein transferase was prepared essentially as described (Y. Reiss et al., Methods: A Companion to Methods in Enzymology vol 1, 241-245, 1990). Kirsten virus transformed human osteosarcoma (KHOS) cells (American Type Culture Collection, Rockville, Md., USA) grown as solid tumors in nude mice or grown as monolayer cell cultures were used as a source of human enzyme. Briefly, cells or tumors were homogenized in buffer containing 50 mM Tris, 1 mM EDTA, 1 mM EGTA and 0.2 mM phenylmethylsulfonylfluoride (pH 7.5). The homogenates were centrifuged 28,000×g for 60 min and the supernatants collected. A 30-50% ammonium sulfate fraction was prepared, and the resulting precipitate was resuspended in a small (10 to 20 ml) volume of dialysis buffer containing 20 mM Tris 1 mM dithiothreitol and 20 μM ZnCl2. The ammonium sulfate fraction was dialyzed overnight against two changes of the same buffer. The dialyzed material was applied to a 10×1 cm Q Fast Flow Sepharose (Pharmacia LKB Biotechnology Inc., Piscataway, N.J., USA) which had been preequilibrated with 100 ml of dialysis buffer supplemented with 0.05 M NaCl. The column was washed with an additional 50 ml of dialysis buffer plus 0.05 M NaCl followed by a gradient from 0.05 M to 0.25 M NaCl prepared in dialysis buffer. The enzyme activity was eluted with a linear gradient of 0.25 to 1.0 M NaCl prepared in the dialysis buffer. Fractions containing 4 to 5 ml volumes of column eluate were collected and analyzed for farnesyl protein transferase activity. Fractions with enzyme activity were pooled and supplemented with 100 μM ZnCl2. Enzyme samples were stored frozen at −70° C.
The activity of farnesyl protein transferase was measured using the Farnesyl Transferase [^3H] Scintillation Proximity Assay (Amersham International plc., England) under the conditions specified by the manufacturer. To assay for inhibitors of the enzyme, 0.20 μCi of the [^3H]-famesylpyrophosphate substrate and the biotinylated lamin B peptide substrate (biotin-YRASNRSCAIM) were mixed with test compounds in a reaction buffer consisting of 50 mM HEPES, 30 mM MgCl2, 20 mM KCl, 5 mM dithiothreitol, 0.01% Triton X-100. Test compounds were delivered in a 10 μl volume of dimethylsulfoxide (DMSO) to achieve concentrations of 1 and 10 μg/ml in a final volume of 100 μl. The reaction mixture was warmed to 37° C. The enzyme reaction was started by adding 20 μl of diluted human farnesyl protein transferase. Sufficient enzyme preparation was added to produce between 4000 to 15000 cpm of reaction product during the 60 min of reaction incubation at 37° C. Reactions were terminated by the addition of STOP/scintillation proximity bead reagent (Amersham). The reaction product [^3H]-farnesyl-(Cys)-biotin lamin B peptide was captured on the streptavidin linked scintillation proximity bead. The amount of [^3H]-farnesyl-(Cys)-biotin lamin B peptide synthesized in the presence or absence of test compounds was quantified as cpm by counting on a Wallac Model 1480 Microbeta Liquid Scintillation Counter. The cpm of product was considered to be farnesyl protein transferase activity. The protein farnesyl transferase activity observed in the presence of test compound was normalized to farnesyl transferase activity in the presence of 10% DMSO and expressed as per cent inhibition. […] The effects of test compounds in these studies were calculated as IC50 (concentration of test compound producing 50% inhibition of enzyme activity) using the LGICV50 computer program written by the Science Information Division of R. W. Johnson Pharmaceutical Research Institute (Spring House, Pa., USA) on a VAX computer.
(In a scintillation proximity assay essentially only radioactivity close to the scintillant gives light.)

Assay [2] relates to NIH 3T3 cells transformed by the T24 activated human H-ras gene. Description: Ras-transformed cell phenotype reversion assay. The settings on record: cell counts after 72 hours proliferation, corrected for initial input of 200,000 cells. The class given is cell-based, mouse. An excerpt: Insertion of activated oncogenes such as the mutant ras gene into mouse NIH 3T3 cells converts the cells to a transformed phenotype. The cells become tumorigenic, display anchorage independent growth in semi-solid medium and lose contact inhibition. Loss of contact inhibition produces cell cultures which no longer form uniform monolayers. Rather, the cells pile up into multicellular nodules and grow to very high saturation densities in plastic tissue culture dishes. Agents such as protein farnesyl transferase inhibitors which revert the ras transformed phenotype restore the uniform monolayer growth pattern to cells in culture. This reversion is easily monitored by counting the number of cells in tissue culture plates. Transformed cells will achieve higher cell numbers than cells which have reverted to an untransformed phenotype. Compounds which revert the transformed phenotype should produce antitumor effects in tumors bearing ras gene mutations.
Compounds are screened in tissue culture in NIH 3T3 cells transformed by the T24 activated human H-ras gene. Cells are seeded at an initial density of 200,000 cells per well (9.6 cm^2 surface area) in six-well cluster tissue culture plates. Test compounds are immediately added to 3.0 ml cell growth medium in a 3.0 μl volume of DMSO, with a final concentration of DMSO in the cell growth medium of 0.1%. The test compounds are run at concentrations of 5, 10, 50, 100, and 500 nM along with a DMSO treated vehicle control. (In case a high activity is observed at 5 nM, the test compound is tested at even lower concentrations.) The cells are allowed to proliferate for 72 hours. Then the cells are detached in 1.0 ml trypsin-EDTA cell dissociation medium and counted on a Coulter particle counter.
Cell numbers expressed as cells per well are measured using a Coulter Particle Counter.
All cell counts were corrected for the initial cell input density by subtracting 200,000.
Control cell counts=[cell counts from cells incubated with DMSO vehicle −200,000].
Test compound cell counts=[cell counts from cells incubated with test compound −200,000]. [formula]
IC50 (i.e. the test compound concentration required to inhibit enzyme activity by 50%) is calculated if sufficient data are available, summarized in table 11.

Where a name gives a salt, the structure may show the parent alone.

The IC50 is the concentration that gives 50% inhibition.

For `CCCOc1cccc(-c2cc(=O)n(C)c3ccc(C(c4ccc(Cl)cc4)c4cncn4C)cc23)c1` (stereo not drawn) [Compound 52], the half-maximal inhibitory concentration (IC50) in assay [1] came to 5.7 nM.

Regarding `Cn1cncc1C(OCCCO)(c1ccc(Cl)cc1)c1ccc2c(c1)c(-c1cccc(Cl)c1)cc(=O)n2C` (stereo not drawn) [Compound 15], the 50% inhibitory concentration (IC50) in assay [1] amounted to 18.4 nM.

Take `CNC(c1ccc(Cl)cc1)(c1ccc2c(c1)c(-c1cccc(Cl)c1)cc(=O)n2C)c1cncn1C` (racemic) [Compound 61, (±)-4-(3-chlorophenyl)-6-[(4-chlorophenyl)(methylamino)(1-methyl-1H-imidazol-5-yl)methyl]-1-methyl-2(1H)-quinolinone monohydrate]: the 50% inhibitory concentration (IC50) in assay [1] is 1.1 nM; in assay [2] (NIH3T3), 310 nM.

In turn, `COc1cccc(-c2cc(=O)n(C)c3ccc(C(O)(c4ccc(Cl)cc4)c4cncn4C)cc23)c1` (racemic) [Compound 36, (±)-6-[(4-chlorophenyl)hydroxy(1-methyl-1H-imidazol-5-yl)methyl]-4-(3-methoxyphenyl)-1-methyl-2(1H)-quinolinone] registered a 50% inhibitory concentration (IC50) in assay [1] of 2.8 nM.

Turning to `COCC(=O)NC(c1ccc(Cl)cc1)(c1ccc2c(c1)c(-c1cccc(Cl)c1)cc(=O)n2C)c1cncn1C` (racemic) [Compound 89, (±)-N-[(4-chlorophenyl)[4-(3-chlorophenyl)-1,2-dihydro-1-methyl-2-oxo-6-quinolinyl](1-methyl-1H-imidazol-5-yl)methyl]-2-methoxyacetamide monohydrochloride], in assay [2] (NIH3T3), the concentration for half-maximal inhibition (IC50) stood at 24 nM.

As for `Cn1cncc1C(O)(c1ccc(Cl)cc1)c1ccc2c(c1)c(-c1ccccc1)cc(=O)n2C` (stereo not drawn) [Compound 1], 6 nM corresponded to half-maximal inhibition in assay [1] (IC50).

For `CCCOc1cccc(-c2cc(=O)n(C)c3ccc(C(O)(c4ccc(Cl)cc4)c4cncn4C)cc23)c1` (stereo not drawn) [Compound 37], the concentration for half-maximal inhibition (IC50) in assay [1] was 10.1 nM.

Take `CCOCCCOC(c1ccc(Cl)cc1)(c1ccc2c(c1)c(-c1cccc(Cl)c1)cc(=O)n2C)c1cncn1C` (stereo not drawn) [Compound 29]: the IC50 came to 57 nM in assay [1] and 345 nM in assay [2] (NIH3T3).

As for `Cn1c(=O)cc(-c2cccc(Cl)c2)c2cc(C(c3ccc(Cl)cc3)c3c[nH]cn3)ccc21` (stereo not drawn) [Compound 45], the IC50 in assay [1] was 1000 nM.

As to `CCCc1cccc(-c2cc(=O)n(C)c3ccc(C(N)(c4ccc(Cl)cc4)c4cncn4C)cc23)c1` (stereo not drawn) [Compound 100], the half-maximal inhibitory concentration (IC50) in assay [1] stood at 0.52 nM; in assay [2] (NIH3T3), 11 nM.

Turning to `CCc1cccc(-c2cc(=O)n(C)c3ccc(C(N)(c4ccc(Cl)cc4)c4cncn4C)cc23)c1` (stereo not drawn) [Compound 98], the 50% inhibitory concentration (IC50) amounted to 6.4 nM in assay [1] and 15 nM in assay [2] (NIH3T3).

In assay [1], `Cn1c(=O)cc(-c2ccccc2)c2cc(C(c3ccc(Cl)cc3)c3c[nH]cn3)ccc21` (stereo not drawn) [Compound 42] had an IC50 of 910 nM.

As to `CCOC(=O)CC(c1ccc(Cl)cc1)(c1ccc2c(c1)c(-c1cccc(Cl)c1)cc(=O)n2C)c1cncn1C` (stereo not drawn) [Compound 58], the 50% inhibitory concentration (IC50) came out at 2.8 nM in assay [1] and 96 nM in assay [2] (NIH3T3).

With `Cn1cncc1C(O)(c1ccc(Cl)cc1)c1ccc2c(c1)c(-c1cccc(Cl)c1)cc(=O)n2C` (stereo not drawn) [Compound 24, (B)-4-(3-chlorophenyl)-6-[(4-chlorophenyl)hydroxy(1-methyl-1H-imidazol-5-yl)methyl]-1-methyl-2(1H)-quinolinone ethanedioate(1:1)], the IC50 in assay [1] came out at 2.7 nM; in assay [2] (NIH3T3) it was 16 nM.

`Cn1cncc1C(c1ccc(Cl)cc1)(c1ccc2c(c1)c(-c1cccc(Cl)c1)cc(=O)n2C)n1ccnc1` (stereo not drawn) [Compound 60]: the IC50 in assay [1] was found to be 0.62 nM; in assay [2] (NIH3T3) it was 70 nM.

For the molecule `CN(C)C(c1ccc(Cl)cc1)(c1ccc2c(c1)c(-c1cccc(Cl)c1)cc(=O)n2C)c1cncn1C` (stereo not drawn) [Compound 66], the IC50 came out at 4 nM in assay [1] and 19 nM in assay [2] (NIH3T3).

In the case of `Cn1cncc1C(CO)(c1ccc(Cl)cc1)c1ccc2c(c1)c(-c1cccc(Cl)c1)cc(=O)n2C` (stereo not drawn) [Compound 71], the half-maximal inhibitory concentration (IC50) in assay [1] stood at 26 nM; in assay [2] (NIH3T3) it was 288 nM.

In assay [2] (NIH3T3), `Cn1cncc1C(N)(c1ccc(Cl)cc1)c1ccc2c(c1)c(-c1cccc(Cl)c1)c(Cl)c(=O)n2C` (racemic) [Compound 143, (±)-6-[amino(4-chlorophenyl)(1-methyl-1H-imidazol-5-yl)methyl]-3-chloro-4-(3-chlorophenyl)-1-methyl-2(1H)-quinolinone] gave an IC50 of 82 nM.

As to `COCCNC(c1ccc(Cl)cc1)(c1ccc2c(c1)c(-c1cccc(Cl)c1)cc(=O)n2C)c1cncn1C` (stereo not drawn) [Compound 67], the half-maximal inhibitory concentration (IC50) in assay [1] was determined as 5.9 nM; in assay [2] (NIH3T3), 51 nM.

Molecule `CCCc1cccc(-c2cc(=O)n(C)c3ccc(C(O)(c4ccc(Cl)cc4)c4cncn4C)cc23)c1` (stereo not drawn) [Compound 99] gave an IC50 in assay [1] of 1.7 nM.

Molecule `Cn1cncc1C(O)(c1ccc(Cl)cc1)c1ccc2c(c1)c(-c1cccc(Cl)c1)cc(=O)n2C` (stereo not drawn) [Compound 23, (A)-4-(3-chlorophenyl)-6-[(4-chlorophenyl)-hydroxy(1-methyl-1H-imidazol-5-yl)methyl]-1-methyl-2(1H)-quinolinone ethanedioate (1:1)] came in with a half-inhibitory concentration (IC50) in assay [2] of 395 nM.

With `Cn1cncc1C(O)(c1ccc(Cl)cc1)c1ccc2c(c1)c(-c1cccc(O)c1)cc(=O)n2C` (stereo not drawn) [Compound 64], 11.6 nM corresponded to half-maximal inhibition in assay [1] (IC50).

Molecule `Cn1cncc1C(c1ccc(Cl)cc1)c1ccc2[nH]c(=O)cc(-c3cccc(Cl)c3)c2c1` (stereo not drawn) [Compound 7] registered an IC50 in assay [1] of 1.6 nM.

In assay [2] (NIH3T3), `Cn1cncc1C(c1ccc(Cl)cc1)c1ccc2c(c1)c(-c1cccc(Cl)c1)cc(=S)n2C` (racemic) [Compound 128, (±)-4-(3-chlorophenyl)-6-[(4-chlorophenyl)(1-methyl-1H-imidazol-5-yl)methyl]-1-methyl-2(1H)-quinolinethione] displayed a 50% inhibitory concentration (IC50) of 177 nM.

Consider `CCc1cccc(-c2cc(=O)n(C)c3ccc(C(O)(c4ccc(Cl)cc4)c4cncn4C)cc23)c1` (stereo not drawn) [Compound 97], for which half-maximal inhibition in assay [1] (IC50) was put at 2.9 nM.

The molecule `COC(c1ccc(Cl)cc1)(c1ccc2c(c1)c(-c1cccc(Cl)c1)cc(=O)n2C)c1cncn1C` (racemic) [Compound 4, (±)-4-(3-chlorophenyl)-6-[(4-chlorophenyl)methoxy(1-methyl-1H-imidazol-5-yl)methyl]-1-methyl-2(1H)-quinolinone ethanedioate(1:1).dihydrate] came in with an IC50 in assay [1] of 24 nM.
